Experimental data published in PMC7662656, “Pyrazole Incorporated New Thiosemicarbazones: Design, Synthesis and Investigation of DPP-4 Inhibitory Effects” (Molecules, 2020).

Experiments:
DPP-4 = target: T1, DPP-4 (Homo sapiens, UniProt P27487); assay: DPP-4 Inhibitor Screening Assay (fluorescence-based, Gly-Pro-AMC substrate); assay type: biochemical; details: mean ± SD; for inhibition at 100 µM: compound at 100 µM, triplicate; for IC50: five concentrations 10^−1 to 10^−5 µM, read-out: IC50 for DPP-4 inhibition
T1 construct: purchased Cayman Chemicals, Ann Arbor, MI, USA
T1 sequence (P27487 whole entry): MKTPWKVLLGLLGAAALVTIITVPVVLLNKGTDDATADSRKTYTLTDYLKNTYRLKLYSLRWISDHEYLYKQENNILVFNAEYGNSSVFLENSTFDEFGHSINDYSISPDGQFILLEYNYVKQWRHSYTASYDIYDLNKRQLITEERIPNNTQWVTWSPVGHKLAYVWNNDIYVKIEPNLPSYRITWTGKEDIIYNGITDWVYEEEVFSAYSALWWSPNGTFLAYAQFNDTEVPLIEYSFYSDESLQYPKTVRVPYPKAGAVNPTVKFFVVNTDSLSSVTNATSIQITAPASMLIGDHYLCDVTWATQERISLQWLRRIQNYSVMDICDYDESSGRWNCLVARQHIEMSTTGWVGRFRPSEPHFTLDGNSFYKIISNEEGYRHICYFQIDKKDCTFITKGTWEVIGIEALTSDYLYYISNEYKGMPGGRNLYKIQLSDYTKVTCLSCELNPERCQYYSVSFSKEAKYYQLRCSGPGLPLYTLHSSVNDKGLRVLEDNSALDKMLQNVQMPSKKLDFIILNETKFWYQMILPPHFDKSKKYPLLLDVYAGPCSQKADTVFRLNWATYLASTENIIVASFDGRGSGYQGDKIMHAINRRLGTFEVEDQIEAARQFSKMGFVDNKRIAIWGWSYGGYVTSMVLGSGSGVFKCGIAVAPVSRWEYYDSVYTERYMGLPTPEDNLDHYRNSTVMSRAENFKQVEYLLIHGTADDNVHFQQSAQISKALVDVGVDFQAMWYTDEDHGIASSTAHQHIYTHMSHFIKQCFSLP
Protocol: This assay kit allows DPP-4 measurement using Gly-Pro-Aminomethylcoumarin (AMC) as a fluorogenic substrate. The free AMC group is released through the cleavage of the peptide bond by DPP leading to fluorescence that can be examined using appropriate excitation and emission wavelengths. Briefly, the experiment was performed triplicate in a white flat bottom 96 well plate. Thirty microlitres of assay buffer, 10 µL of DPP-4 enzyme, 10 µL of dimethyl sulfoxide (DMSO), and 50 µL of DPP substrate were added to 100% initial activity wells. Forty microlitres of assay buffer, 10 µL of DMSO, and 50 µL of DPP substrate were added to background wells. Thirty microlitres of assay buffer, 10 µL of DPP-4 enzyme, 10 µL of sample, and 50 µL of DPP substrate were added to inhibitor wells. […] The plate was incubated for 30 min at 37 °C, and fluorescence measurements were analyzed using an excitation wavelength of 360/40 nm and an emission wavelength of 460/40 nm in a multi-mode plate reader (Synergy HTX S1LFA, BioTek Instruments, Winooski, VT, USA). All assays were performed in triplicate. The fluorescence of the background wells was subtracted from all other wells before the calculations. The per cent inhibition was determined by the following formula in equation 1:Inhibition% = [(Initial activity − Inhibitor)/Initial Activity] × 100(1)

[1] = MTT cytotoxicity assay on NIH/3T3 cells; assay type: cell-based; details: mouse, NIH/3T3 mouse embryonic fibroblast cells, 24 h incubation, 31.25-500 µM, read-out: IC50 cytotoxicity towards NIH/3T3 cell line
Protocol: NIH/3T3 mouse embryonic fibroblast (normal) cells (ATCC® CRL-1658™) were grown in RPMI 1640 medium (Sigma-Aldrich, St. Louis, MO, USA) supplemented with 2 mM L-glutamine (Gibco, Paisley, UK), 10% fetal bovine serum (Gibco, Paisley, UK) and 1% penicillin/streptomycin (Gibco, Paisley, UK) at 37 °C in a humidified incubator with a 5% CO2 atmosphere. Compounds 2a–o were dissolved in DMSO (Sigma-Aldrich, St. Louis, MO, USA) and diluted to required concentrations with a fresh medium. The control group (solvent control) was prepared with a medium containing 0.1% DMSO. […]
In order to determine IC50 concentrations of compounds 2a–o, cell viability was determined by MTT assay. […] The absorbance values were measured at 540 nm using a Cytation 3 Cell Imaging Multi-Mode Reader (BioTek, Winooski, VT, USA). Cell survival rates were expressed as the percentage of the DMSO (0.1%) solvent control and IC50 concentrations were calculated according to the analysis result.

SMILES: O=[N+]([O-])c1ccc(/C=N/NC(=S)Nc2ccc(-n3cccn3)cc2)cc1 [Compound 2b, [4-(1H-Pyrazol-1-yl)phenyl]-1-(4-nitrobenzylidene)thiosemicarbazide]
- inhibition at 100 µM (DPP-4): 35.5 ± 1.75%

SMILES: S=C(NN=Cc1ccc(Br)cc1)Nc1ccc(-n2cccn2)cc1 [Compound 2f, 4-[4-(1H-pyrazol-1-yl)phenyl]-1-(4-bromobenzylidene)thiosemicarbazide]
- IC50 (DPP-4): 1.27 ± 0.264 nM
- IC50 at 24 h [1]: > 500000 nM

SMILES: CSc1ccc(/C=N/NC(=S)Nc2ccc(-n3cccn3)cc2)cc1 [Compound 2k, [4-(1H-Pyrazol-1-yl)phenyl]-1-(4-methylthiobenzylidene)thiosemicarbazide]
- inhibition at 100 µM (DPP-4): > 60%
- IC50 (DPP-4): 22.7 ± 0.301 nM

SMILES: CS(=O)(=O)c1ccc(/C=N/NC(=S)Nc2ccc(-n3cccn3)cc2)cc1 [Compound 2j, [4-(1H-Pyrazol-1-yl)phenyl]-1-(4-methylsulfonylbenzylidene)thiosemicarbazide]
- inhibition at 100 µM (DPP-4): 59.8 ± 1.13%

SMILES: S=C(N/N=C/c1ccccc1)Nc1ccc(-n2cccn2)cc1 [Compound 2a, [4-(1H-Pyrazol-1-yl)phenyl]-1-(benzylidene)thiosemicarbazide]
- inhibition at 100 µM (DPP-4): 20.7 ± 1.82%

SMILES: COc1ccc(/C=N/NC(=S)Nc2ccc(-n3cccn3)cc2)cc1 [Compound 2i, [4-(1H-Pyrazol-1-yl)phenyl]-1-(4-methoxybenzylidene)thiosemicarbazide]
- inhibition at 100 µM (DPP-4): > 60%
- IC50 (DPP-4): 43.31 ± 0.372 nM

SMILES: Fc1ccc(/C=N/NC(=S)Nc2ccc(-n3cccn3)cc2)cc1 [Compound 2d, [4-(1H-Pyrazol-1-yl)phenyl]-1-(4-fluorobenzylidene)thiosemicarbazide]
- inhibition at 100 µM (DPP-4): 27.3 ± 2.03%

SMILES: Cc1ccc(/C=N/NC(=S)Nc2ccc(-n3cccn3)cc2)cc1 [Compound 2h, [4-(1H-Pyrazol-1-yl)phenyl]-1-(4-methylbenzylidene)thiosemicarbazide]
- inhibition at 100 µM (DPP-4): 53.2 ± 3.1%

SMILES: S=C(N/N=C/c1ccc(-c2ccccc2)cc1)Nc1ccc(-n2cccn2)cc1 [Compound 2o, [4-(1H-Pyrazol-1-yl)phenyl]-1-(4-phenylbenzylidene)thiosemicarbazide]
- inhibition at 100 µM (DPP-4): > 60%
- IC50 (DPP-4): 18.1 ± 0.311 nM

SMILES: FC(F)(F)c1ccc(/C=N/NC(=S)Nc2ccc(-n3cccn3)cc2)cc1 [Compound 2g, [4-(1H-Pyrazol-1-yl)phenyl]-1-(4-trifluoromethylbenzylidene)thiosemicarbazide]
- inhibition at 100 µM (DPP-4): > 60%
- IC50 (DPP-4): 4.78 ± 0.296 nM

SMILES: CC(C)(C)c1ccc(/C=N/NC(=S)Nc2ccc(-n3cccn3)cc2)cc1 [Compound 2n, [4-(1H-Pyrazol-1-yl)phenyl]-1-(4-tert-butylbenzylidene)thiosemicarbazide]
- inhibition at 100 µM (DPP-4): 28.6 ± 1.76%

SMILES: CN(C)c1ccc(/C=N/NC(=S)Nc2ccc(-n3cccn3)cc2)cc1 [Compound 2l, [4-(1H-Pyrazol-1-yl)phenyl]-1-(4-dimethylaminobenzylidene)thiosemicarbazide]
- inhibition at 100 µM (DPP-4): 57.3 ± 1.04%

SMILES: CC(C)c1ccc(/C=N/NC(=S)Nc2ccc(-n3cccn3)cc2)cc1 [Compound 2m, [4-(1H-Pyrazol-1-yl)phenyl]-1-(4-isopropylbenzylidene)thiosemicarbazide]
- inhibition at 100 µM (DPP-4): 47.4 ± 1.29%

SMILES: N#Cc1ccc(/C=N/NC(=S)Nc2ccc(-n3cccn3)cc2)cc1 [Compound 2c, [4-(1H-Pyrazol-1-yl)phenyl]-1-(4-cyanobenzylidene)thiosemicarbazide]
- inhibition at 100 µM (DPP-4): 28 ± 1.63%

SMILES: S=C(N/N=C/c1ccc(Cl)cc1)Nc1ccc(-n2cccn2)cc1 [Compound 2e, [4-(1H-Pyrazol-1-yl)phenyl]-1-(4-chlorobenzylidene)thiosemicarbazide]
- inhibition at 100 µM (DPP-4): 38.4 ± 2.14%
